Test results published in patent US6506555B1, “Use of HIV protease inhibiting compounds” (Institut National de la Sante et de la Recherche Medicale …, priority 1998, dated 2003).
Where a name gives a salt, the structure may show the parent alone. Read-outs that look alike come from different tables or passages of the source.

Assays:
[1] = target: T1, 20S proteasomes isolated from murine B8 fibroblasts (Mus musculus, UniProt O55234+P70195+Q60692); test: Hydrolysis of fluorogenic substrates by isolated 20S proteasomes; format: biochemical; settings: for "chimotrypsin-like" activity (hydrolysis of Suc-LLVY-MCA), comparison of four HIV-1 protease inhibitors: different batch of purified proteasomes, increasing concentrations
T1 construct: 20S proteasomes isolated from murine B8 fibroblasts; endogenous in cells; host or cells: murine B8 fibroblasts; 20S proteasome purified from the cells
Description: FIGS. 4B, 4C and 4D show the hydrolysis of the fluorogenic substrate (100 μM Suc-LLVY-MCA, 100 μM (Z)-GGL-MCA and 400 μM Bz-VGR-MCA) of the 20S proteasomes isolated from murine B8 fibroblasts, as a function of variable concentrations of ritonavir and of LLnL (N-acetyl-L-leucinyl-L-leucinal-L-norleucinal, known inhibitor of the proteasome). The results are reported for one hour of digestion with the 20S proteasome (500 ng) in a final volume of 100 μl. The values were located in a linear detection domain and are the mean values of triplicates with standard errors of less than 3%.
The hydrolysis of Suc-LLVY-MCA by the 20S murine proteasomes was tested according to the method described in Example 4.2. under identical conditions except for the fact that a different batch of purified proteasomes was used. The hydrolysis of Suc-LLVY-MCA was measured in the presence of increasing concentrations of ritonavir, nelfinavir (Roche), saquinavir (mesylate) and indinavir (active ingredient of Crixivan® marketed by Merck and Sharp and Dohme). The HIV protease inhibitors were dissolved beforehand in ethanol, methanol, DMSO and water respectively, for use in vitro (FIG. 4E).

cytotoxic T lymphocytes [2] = format: in vivo, C57BL/6 mice; settings: for swelling of the footpad after injection of LCMV: mice infected in the footpad with LCMV-WE, swelling after seven to eight days
cytotoxic T lymphocytes [3] = format: in vivo, C57BL/6 mice; settings: splenocytes eight days after i.v. LCMV-WE; EL4 cells sensitized with GP33-41 or NP peptide
[4] = 100 μM substrate, one hour digestion, 500 ng 20S proteasome
[5] = patients with hepatic cytolysis (cytolysis +)
[6] = patients without hepatic cytolysis (cytolysis −)

With “N-acetyl-L-leucinyl-L-leucinal-L-norleucinal [LLnL]” the “hydrolysis of the fluorogenic substrate Suc-LLVY-MCA” value [1, 4] was “inhibits in a similar manner”, the “hydrolysis of the substrate (Z)-GGL-MCA” value [1, 4] was “inhibits in a similar manner” and the “cleavage of the substrate Bz-VGR-MCA ("trypsin" type activity)” value ([1]; 400 μM substrate, one hour digestion, 500 ng 20S proteasome) was “inhibits in a similar manner”.

`CC(C)(C)NC(=O)[C@@H]1C[C@@H]2CCCC[C@@H]2CN1C[C@@H](O)[C@H](Cc1ccccc1)NC(=O)[C@H](CC(N)=O)NC(=O)c1ccc2ccccc2n1` [saquinavir] was tested, and the “inhibition of the swelling of the footpads” value (cytotoxic T lymphocytes [2]; 7th day after the treatment, oral dose of 4 mg per day) was “up to 73%”, the “"chymotrypsin-like" activity of the proteasome” value ([1]; summary statement) was “inhibited” and the “"trypsin" activity of the proteasome” value ([1]; summary statement) was “increased”.

With `CC(C)(C)NC(=O)[C@@H]1C[C@@H]2CCCC[C@@H]2CN1C[C@@H](O)[C@H](Cc1ccccc1)NC(=O)[C@H](CC(N)=O)NC(=O)c1ccc2ccccc2n1` [saquinavir mesylate] the “"chimotrypsin-like" activity (hydrolysis of Suc-LLVY-MCA), comparison of four HIV-1 protease inhibitors” value [1] was “inhibits”.

In the case of `CC(C)(C)NC(=O)[C@@H]1CN(Cc2cccnc2)CCN1C[C@@H](O)C[C@@H](Cc1ccccc1)C(=O)N[C@H]1c2ccccc2C[C@H]1O` [indinavir], the anti-HCV antibody titre (HCV; during the therapy) is reported as “No increase”, the “patients in whom the ALAT concentrations increased” value (HCV; patients coinfected with HCV and HIV) is reported as 10% and the “Ac index (variation of anti-HCV antibody titre, ratio of the optical densities)” value (HCV; [5]) is reported as 0.98. The “variation of CD4” value (HCV; [5]) was 29.5 cells /mm^3, the “variation of CD8” value (HCV; [5]) was 203.5 cells /mm^3 and the “variation of HCV-VL (viral HCV load)” value (HCV; [5]) was 2.25 log10 of copies of RNA/ml. For the same compound, the “Ac index (variation of anti-HCV antibody titre, ratio of the optical densities)” value (HCV; [6]) was 1.01(+/−0.13), the “variation of CD4” value (HCV; [6]) was 21.1(+/−68) cells /mm^3 and the “variation of CD8” value (HCV; [6]) was 9.2(+/−222) cells /mm^3. The “variation of HCV-VL (viral HCV load)” value (HCV; [6]) was “+0.41 log10 of copies of RNA/ml”, the “variation of HCV-VL (viral HCV load)” value (HCV; patients without hepatic cytolysis (cytolysis −), listed as IDN) was 0.41(+/−0.79) log10 of copies of RNA/ml and the “swelling of the footpad after injection of LCMV” value (cytotoxic T lymphocytes [2]) was “not inhibited”. For the same compound, the “"chimotrypsin-like" activity (hydrolysis of Suc-LLVY-MCA), comparison of four HIV-1 protease inhibitors” value [1] was “no inhibition” and the “lysis of the target cells (direct lysis ex vivo after systemic infection)” value (cytotoxic T lymphocytes [3]) was “not inhibited”.

In the case of `Cc1c(O)cccc1C(=O)N[C@@H](CSc1ccccc1)[C@H](O)CN1C[C@H]2CCCC[C@H]2C[C@H]1C(=O)NC(C)(C)C` [nelfinavir], the “swelling of the footpad after injection of LCMV” value (cytotoxic T lymphocytes [2]) is reported as “not inhibited”, the “"chimotrypsin-like" activity (hydrolysis of Suc-LLVY-MCA), comparison of four HIV-1 protease inhibitors” value [1] is reported as “no inhibition” and the “lysis of the target cells (direct lysis ex vivo after systemic infection)” value (cytotoxic T lymphocytes [3]) is reported as “not inhibited”.
